# Test results from article PMC11189555, “Aryl amino acetamides prevent Plasmodium falciparum ring development via targeting the lipid-transfer protein PfSTART1” (Nature Communications, 2024).
# Values joined by “and” are separate entries in the source; they are usually repeats but may differ in a detail not shown here. Equal entries are not always repeated. Where two headings read alike, the source gives them in different places.
# Tests used:
# [1] = system: CR-WT parasites; assay: Growth inhibition assay (72 h, LDH activity); assay type: cell-based, Plasmodium falciparum; details: for EC50: n = 3
# Description: Parasite growth assays with inhibitory compounds were performed as per[11] and are fully described in the Supplementary Information.
# Molecular biology and transfection of P. falciparum: CRISPR method.
# The full 5’ homology region of pfstart1 (either WT, N309K or N330K) was amplified from pPfSTART1-HA-2A-Neo-glmS with the same 5’ BglII primer and a new 3’ primer that replaced with PstI with SpeI and introduced a stop codon. The PCR product was then digested with BglII and SpeI and inserted into similarly digested p1.2 parasite vector2. The p1.2 vector had previously been inserted with a homology region amplified from the 3’ end of the pfstart1 gene (3’HB) to form a second homology block for double recombination. The primers used to amplify 3’HB are listed primers listed in […]
# 60 μg of p1.2-PfSTART1(WT/N309K/N330K) plasmid was linearised with KasI, precipitated in 3 M sodium acetate and ethanol (70% final concentration) overnight at -20°C. The DNA pellet was washed in cold 70% ethanol and resuspended in cytomix 3.
# 50 μ M of crRNA ( Table S 2) and 50 μM of tracRNA (Integrated DNA Technologies) were allowed to form a duplex (5 min at 95°C), and Cas9 enzyme (Integrated DNA Technologies) was added, and incubated for 20 min at room temperature 4. This crRNA -tracRNA -Cas9 mix was added to each DNA preparation and transfected to 3D7 ring parasites using the Bio -Rad Gene Pulser at 310 V and 950 μF.
# Parasites containing the transfected DNA were selected using 2.5 nM WR99210 (Jacobus). Parasites lines were cloned using limiting dilution. Correct integration was tested by PCR (using primer START_5’UTR.F and START_Int.R1 , Table S 2), and sequencing was done using the primers START_3F and START_Int.R2 (Table S 2).
# Growth inhibition assays. Synchronised ring-stage parasites (0.3-0.6% parasitemia, 2% haematocrit) were grown for 72 h in a serial-dilution of the compound under […]
# and compound 4. Note that M-833 was first purchased from MolPort (MolPort -002-267-916) then made in-house at WEHI: the differences observed in EC50s across experiments are attributed to the different batches of M -833. For some experiments, 0, 0.25 or 2.5 mM of glucosamine (GlcN) was also added. Experiments were set up in technical duplicates or triplicates. Following a freeze -thaw cycle, lactate dehydrogenase (LDH) activity was assessed as an indicator of parasite growt h 5. 30 μL of parasite culture was incubated for 30 min in the dark with 75 μL Malstat mixture (0.1 M Tris pH 9.0, 20 g/L lactic acid, pH 7.5, 0.2% Triton-X100, 0.5 g/L acetylpyridine adenine dinucleotide (APAD, Sigma), 200 μg/mL nitroblue tetrazolium (NBT; Sigma), 1 μg/mL phenozine ethosulfate (PES; Sigma)). Absorbance was then measured at 650 nm, transformed using the formula below, plotted against the logarithm of the concentrations, and a non-linear regression (log(inhibitor) vs. response, variable slope) was calculated using GraphPad Prism to assess the half-inhibitory […]
# Growth inhibition % = (1 − average(sample)− average(uRBC)) ∗ 100 […]
# The DMSO samples were also used to assess growth of parasite in the presence of 0.25 and 2.5 mM GlcN (normalised by DMSO in 0 mM GlcN). […]
# [2] = system: Hyp1-Nluc parasites; assay: Egress, invasion & recovery assay (Nluc bioluminescence, smears); assay type: cell-based, Plasmodium falciparum; details: W-991 60 nM
# Text: To measure egress, invasion, and follow-up recovery in the presence of different compounds, we adapted the method developed in[11], using Hyp1-Nluc parasites. A full description is in the Supplementary Information. […]
# and compound 4. Note that M-833 was first purchased from MolPort (MolPort -002-267-916) then made in-house at WEHI: the differences observed in EC50s across experiments are attributed to the different batches of M -833. […]
# Egress, invasion & recovery assay. To measure egress, invasion and follow up recovery in the presence of different compounds, we adapted the method developed in6, using Hyp1-Nluc parasites7. These parasites episomally express the exported PEXEL protein Hyp1 (PF3D7_0113300) tagged with a NanoLuc luciferase (NLuc) and were selected with 2.5 nM WR99210 (Jacobus). Highly synchronised schizonts were obtained using ML10 (LifeArc) and sorbitol synchronisation, and Percoll-purified (the culture was gently layered over 67% Percoll (Cytiva) in RPMI, and centrifuged for 15 min at 1500 g and the schizont layer was collected and washed). In a 96-well plate, […]
# cultures were set up in 4 replicates (3 replicates for the Nluc readout, and one replicate for Giemsa smears) with 1-2% parasitemia, 2% haematocrit, with the following […]
# 100 μg/ml heparin (Sigma) and 10 μM E64 (Sigma). The schizonts were allowed to egress and invade for 4 h at 37°C. A “background” plate without treatment was left in the fridge during this time. After 4 h, cultures were sorbitol -treated to eliminate schizonts that have not egressed. Smears were made every day for the following 3 days, and 5 μL of the resuspended cultures were taken to measure Nluc activity (to assess parasite’s presence). To measure Nluc activity, 5 μL culture were added to 45 μL NanoGlo reagent (1x Promega lysis buffer and NanoGlo reagent; Promega). The average luminescence of the background cultures was subtracted to the average luminescence of each sample. […]
# The viable parasite value was then expressed in log units and parasite reduction ratio was calculated as a decrease in […]
compound,measurement,setting,value
Cc1cc(Cl)c(S(=O)(=O)N2CCCC2)cc1OCC(=O)NC1CCCCC1 [M-833],"Growth inhibition assay, NORMALISED","[1]; CR-WT, 0 mM GlcN, conc 41.1523 nM",25.7439 and 21.0208
same,"Growth inhibition assay, NORMALISED","[1]; CR-WT, 0 mM GlcN, conc 123.457 nM",61.3173 and 56.525
same,"Growth inhibition assay, NORMALISED","[1]; CR-WT, 0 mM GlcN, conc 370.37 nM",82.8843
same,"Growth inhibition assay, NORMALISED","[1]; CR-WT, 0 mM GlcN, conc 1111.11 nM",89.7059
same,"Growth inhibition assay, NORMALISED","[1]; CR-WT, 0 mM GlcN, conc 3333.33 nM",91.3866
same,"Growth inhibition assay, NORMALISED","[1]; CR-WT, 0 mM GlcN, conc 10000 nM",91.9797
same,"NORMALISED (growth inhibition, LDH absorbance vs DMSO and uRBC)","[1]; CR-WT, 0.25 mM GlcN, M833 dilution point 1 of 10 (starting concentration 10 uM)",91.6378 and 97.2065 and 92.208
same,"NORMALISED (growth inhibition, LDH absorbance vs DMSO and uRBC)","[1]; CR-WT, 0.25 mM GlcN, M833 dilution point 2 of 10 from 10 uM start",88.8272 and 91.5474 and 95.4251
same,"NORMALISED (growth inhibition, LDH absorbance vs DMSO and uRBC)","[1]; CR-WT, 0.25 mM GlcN, M833 dilution point 3 of 10 from 10 uM start",89.2783 and 89.1988 and 95.5364
same,"NORMALISED (growth inhibition, LDH absorbance vs DMSO and uRBC)","[1]; CR-WT, 0.25 mM GlcN, M833 dilution point 4 of 10 from 10 uM start",88.272 and 87.9755 and 93.8563
same,"NORMALISED (growth inhibition, LDH absorbance vs DMSO and uRBC)","[1]; CR-WT, 0.25 mM GlcN, M833 dilution point 5 of 10 from 10 uM start",75.3643 and 67.6575 and 81.1437
same,"NORMALISED (growth inhibition, LDH absorbance vs DMSO and uRBC)","[1]; CR-WT, 0.25 mM GlcN, M833 dilution point 6 of 10 from 10 uM start",45.0382 and 30.6544 and 52.9049
same,"NORMALISED (growth inhibition, LDH absorbance vs DMSO and uRBC)","[1]; CR-WT, 2.5 mM GlcN, M833 dilution point 1 of 10 (starting concentration 10 uM)",89.8305 and 92.5684 and 90.1213
same,"NORMALISED (growth inhibition, LDH absorbance vs DMSO and uRBC)","[1]; CR-WT, 2.5 mM GlcN, M833 dilution point 2 of 10 from 10 uM start",86.1896 and 88.6745 and 91.3765
same,"NORMALISED (growth inhibition, LDH absorbance vs DMSO and uRBC)","[1]; CR-WT, 2.5 mM GlcN, M833 dilution point 3 of 10 from 10 uM start",89.5794 and 86.621 and 91.7037
same,"NORMALISED (growth inhibition, LDH absorbance vs DMSO and uRBC)","[1]; CR-WT, 2.5 mM GlcN, M833 dilution point 4 of 10 from 10 uM start",86.2524 and 82.3118 and 91.2012
same,"NORMALISED (growth inhibition, LDH absorbance vs DMSO and uRBC)","[1]; CR-WT, 2.5 mM GlcN, M833 dilution point 5 of 10 from 10 uM start",84.1808 and 81.8139 and 88.9226
same,"NORMALISED (growth inhibition, LDH absorbance vs DMSO and uRBC)","[1]; CR-WT, 2.5 mM GlcN, M833 dilution point 6 of 10 from 10 uM start",79.5355 and 74.3155 and 81.4326
same,"NORMALISED (growth inhibition, LDH absorbance vs DMSO and uRBC)","[1]; CR-WT, 2.5 mM GlcN, M833 dilution point 7 of 10 from 10 uM start",64.0929 and 56.4406 and 58.0509
same,"NORMALISED (growth inhibition, LDH absorbance vs DMSO and uRBC)","[1]; CR-WT, 2.5 mM GlcN, M833 dilution point 8 of 10 from 10 uM start",44.6955 and 44.5084 and 37.5789
same,"NORMALISED (growth inhibition, LDH absorbance vs DMSO and uRBC)","[1]; CR-WT, 2.5 mM GlcN, M833 dilution point 9 of 10 from 10 uM start",25.0175 and 29.9435 and 28.2047
same,"NORMALISED (growth inhibition, LDH absorbance vs DMSO and uRBC)","[1]; CR-WT, 2.5 mM GlcN, M833 dilution point 10 of 10 from 10 uM start",14.8750 and 11.4878 and 17.8749
same,EC50,"[1]; Plasmodium falciparum, 72 h, Fig 2D, CR-WT, 72 h, read-out: EC50 (95% confidence interval)",51.2 nM
same,inhibition at 0.37037 µM,"[1]; Plasmodium falciparum, CR-WT, 0 mM GlcN, conc 370.37 nM, read-out: Growth inhibition assay, NORMALISED",88.3%
same,inhibition at 1.11111 µM,"[1]; Plasmodium falciparum, CR-WT, 0 mM GlcN, conc 1111.11 nM, read-out: Growth inhibition assay, NORMALISED",91.9%
same,inhibition at 3.33333 µM,"[1]; Plasmodium falciparum, CR-WT, 0 mM GlcN, conc 3333.33 nM, read-out: Growth inhibition assay, NORMALISED",91.6%
same,inhibition at 10 µM,"[1]; Plasmodium falciparum, CR-WT, 0 mM GlcN, conc 10000 nM, read-out: Growth inhibition assay, NORMALISED",93.5%
same,EC50,"[1]; Plasmodium falciparum, read-out: EC50 M-833 (95% confidence interval), Fig 3F, CR-WT, 0.25 mM GlcN",39.6 nM
same,EC50,"[1]; Plasmodium falciparum, read-out: EC50 M-833 (95% confidence interval), Fig 3F, CR-WT, 2.5 mM GlcN",6.58 nM
same,fold reduction of EC50 on addition of 2.5 mM GlcN,[1]; {},7.8 fold
same,parasite morphology at 72 h after 4 h treatment,"[2]; M-833 2 µM, Giemsa smears",resembled the dysmorphic ring-stage parasites
same,parasite growth (Nluc bioluminescence) followed 72 h after 4 h treatment,"[2]; schizonts treated 4 h: M-833 2 µM, ML10 30 nM, E64 10 µM, heparin 100 µg/mL, then washed off",virtually no recovery after three days
